Measured values from US20240000767A1, “COMBINATION OF AN ALPHA2-ADRENOCEPTOR SUBTYPE C (ALPHA-2C) ANTAGONIST WITH A TASK1/3 CHANNEL BLOCKER FOR THE TREATMENT OF SLEEP APNEA” (Bayer Aktiengesellschaft, priority 2020, published 2024).
pIC50: −log10 of the molar value.

Molecular target: human ADRA2C receptor (Homo sapiens (Human), UniProt P18825)
Test: In vitro activity assay to determine the inhibition of recombinant ADRA2C (CHO-K1 cells, aequorin bioluminescence)
Format: cell-based
Conditions: inhibition of noradrenaline-induced bioluminescence signal; some mean values from multiple determinations; read-out: ARα2C IC50
Protocol: B-2. In Vitro Activity Assay to Determine the Inhibition of Recombinant ADRA2C
The human ADRA2C receptor belongs to the G protein(guanine-dependent protein)-coupled receptors, the main function of which is the transduction of signals into the interior of the cell.
The investigations of the inhibition of the recombinant human ADRA2C receptors were carried out with stabily transfected CHO-K1 cells coexpressing the Gaq protein and the calcium-sensitive photoprotein aequorin. In this recombinant system, binding of the agonists noradrenaline to the ADRA2C receptor leads, after activation of a signal cascade, to calcium release from intracellular stores, which is detected by the intracellular calcium sensor aequorin as a bioluminescent signal. The method is described in detail in the reference below. [Wunder F., Kalthof B., Muller T., Hueser J. Functional Cell-Based Assays in Microliter Volumes for Ultra-High Throughput Screening. Combinatorial Chemistry & High Throughput Screening, Volume 11, Number 7, 2008, pp. 495-504(10). doi.org/10.2174/138620708785204054]
The activity of the test substances was determined via their ability to inhibit the agonist-induced increase of the bioluminescence signal. The concentration which can block half of this signal increase is referred to as IC50. The IC50 value is calculated using the 4 parameter logistic function (Hill function):
Top=upper threshold, Bottom=lower threshold, Slope=slope, IC50=turning point

Sequence of human ADRA2C receptor (P18825 whole entry): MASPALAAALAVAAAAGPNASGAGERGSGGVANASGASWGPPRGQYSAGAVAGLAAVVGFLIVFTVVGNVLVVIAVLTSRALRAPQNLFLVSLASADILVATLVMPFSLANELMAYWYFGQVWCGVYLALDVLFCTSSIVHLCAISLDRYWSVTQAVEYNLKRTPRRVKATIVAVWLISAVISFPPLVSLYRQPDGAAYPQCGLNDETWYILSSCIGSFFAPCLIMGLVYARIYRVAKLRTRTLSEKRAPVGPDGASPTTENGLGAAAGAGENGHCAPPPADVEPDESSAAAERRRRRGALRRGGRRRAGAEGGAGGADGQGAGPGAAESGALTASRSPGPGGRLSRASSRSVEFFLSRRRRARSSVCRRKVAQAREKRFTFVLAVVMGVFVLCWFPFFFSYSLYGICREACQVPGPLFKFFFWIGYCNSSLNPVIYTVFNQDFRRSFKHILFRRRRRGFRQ

| pIC50 | Compound |
| --- | --- |
| 7.13 | C[C@@H]1CCCN(C2CCN(c3ncc(C(=O)NCc4ncc(F)cc4F)s3)CC2F)C1 (mixture of isomers) [Example 50, diamix-N-[(3,5-Difluoropyridin-2-yl)methyl]-2-[(3R)-3′-fluoro-3-methyl[1,4′-bipiperidin]-1′-yl]-1,3-thiazole-5-carboxamide] |
| 6.82 | CC(NC(=O)c1cnc(N2CCC(N3CCC[C@@H](C)C3)CC2)s1)c1ncc(F)cc1F (mixture of isomers) [Example 55, diamix-N-[1-(3,5-Difluoropyridin-2-yl)ethyl]-2-[(3R)-3-methyl[1,4′-bipiperidin]-1′-yl]-1,3-thiazole-5-carboxamide] |
| 9.31 | C[C@@H]1CCCN(C2CCN(c3nc(C(=O)NCc4ncc(F)cc4F)cs3)CC2F)C1 (mixture of isomers) [Example 111, diamix-N-[(3,5-Difluoropyridin-2-yl)methyl]-2-[(3R)-3′-fluoro-3-methyl[1,4′-bipiperidin]-1′-yl]-1,3-thiazole-4-carboxamide] |
| 8.92 | C[C@@H]1CCCN(C2CCN(c3nc(C(=O)NCc4ncc(F)cc4F)co3)CC2F)C1 (mixture of isomers) [Example 112, diamix-N-[(3,5-Difluoropyridin-2-yl)methyl]-2-[(3R)-3′-fluoro-3-methyl[1,4′-bipiperidin]-1′-yl]-1,3-oxazole-4-carboxamide] |
| 9.21 | C[C@@H]1CCCN(C2CCN(c3ncc(C(=O)NCc4cc(Cl)ccc4F)s3)CC2F)C1 (mixture of isomers) [Example 113, diamix-N-(5-Chloro-2-fluorobenzyl)-2-[(3R)-3′-fluoro-3-methyl[1,4′-bipiperidin]-1′-yl]-1,3-thiazole-5-carboxamide] |
| 9.19 | CC(NC(=O)c1cnc(N2CCC(N3CCC[C@@H](C)C3)C(F)C2)s1)c1cc(F)ccc1F (mixture of isomers) [Example 117, diamix-N-[1-(2,5-Difluorophenyl)ethyl]-2-[(3R)-3′-fluoro-3-methyl[1,4′-bipiperidin]-1′-yl]-1,3-thiazole-5-carboxamide] |
| 8.54 | O=C(NCc1ncc(F)cc1F)c1cnc(N2CCC(N3CCCC(CC4CC4)C3)CC2)s1 (racemic) [Example 3, 2-[3-(Cyclopropylmethyl)[1,4′-bipiperidin]-1′-yl]-N-[(3,5-difluoropyridin-2-yl)methyl]-1,3-thiazole-5-carboxamide (racemate)] |
| 6.77 | O=C(NCc1ncc(F)cc1F)c1cnc(N2CCC(N3CCCC(C(F)F)C3)CC2)s1 (racemic) [Example 4, 2-[3-(difluoromethyl)[1,4′-bipiperidin]-1′-yl]-N-[(3,5-difluoropyridin-2-yl)methyl]-1,3-thiazole-5-carboxamide (racemate)] |
| 6.47 | O=C(NCc1ncc(F)cc1F)c1cnc(N2CCC(N3CCCC(C(F)(F)F)C3)CC2)s1 (racemic) [Example 5, N-[(3,5-difluoropyridin-2-yl)methyl]-2-[3-(trifluoromethyl)[1,4′-bipiperidin]-1′-yl]-1,3-thiazole-5-carboxamide (racemate)] |
| 6.47 | O=C(NCc1ncc(F)cc1F)c1cnc(N2CCC(N3CCCC(CF)C3)CC2)s1 (racemic) [Example 6, N-[(3,5-difluoropyridin-2-yl)methyl]-2-[3-(fluoromethyl)[1,4′-bipiperidin]-1′-yl]-1,3-thiazole-5-carboxamide (racemate)] |
| 7.30 | O=C(NCc1ncc(F)cc1F)c1cnc(N2CCC(N3CCCC(OCC4CC(F)(F)C4)C3)CC2)s1 (racemic) [Example 7, 2-{3-[(3,3-difluorocyclobutyl)methoxy][1,4′-bipiperidin]-1′-yl}-N-[(3,5-difluoropyridin-2-yl)methyl]-1,3-thiazole-5-carboxamide (racemate)] |
| 5.70 | O=C(NCc1ncc(F)cc1F)c1cnc(N2CCC(N3CCCC(OC(F)F)C3)CC2)s1 (racemic) [Example 16, 2-[3-(Difluoromethoxy)[1,4′-bipiperidin]-1′-yl]-N-[(3,5-difluoropyridin-2-yl)methyl]-1,3-thiazole-5-carboxamide (racemate)] |
| 7.58 | CCC1CCCN(C2CCN(c3ncc(C(=O)NCc4ncc(F)cc4F)s3)CC2)C1 (racemic) [Example 17, N-[(3,5-Difluoropyridin-2-yl)methyl]-2-(3-ethyl[1,4′-bipiperidin]-1′-yl)-1,3-thiazole-5-carboxamide (racemate)] |
| 7.77 | COCC1CCCN(C2CCN(c3ncc(C(=O)NCc4ncc(F)cc4F)s3)CC2)C1 (racemic) [Example 48, rac-N-[(3,5-Difluoropyridin-2-yl)methyl]-2-[3-(methoxymethyl)[1,4′-bipiperidin]-1′-yl]-1,3-thiazole-5-carboxamide] |
| 6.96 | CC1CCCN(C2CCN(c3ncc(C(=O)NCc4ncc(F)cc4F)s3)CC2)CC1 (racemic) [Example 53, rac-N-[(3,5-Difluoropyridin-2-yl)methyl]-2-[4-(4-methylazepan-1-yl)piperidin-1-yl]-1,3-thiazole-5-carboxamide] |
| 6.64 | CC1CCCCN(C2CCN(c3ncc(C(=O)NCc4ncc(F)cc4F)s3)CC2)C1 (racemic) [Example 54, rac-N-[(3,5-Difluoropyridin-2-yl)methyl]-2-[4-(3-methylazepan-1-yl)piperidin-1-yl]-1,3-thiazole-5-carboxamide] |
| 7.96 | O=C(NCc1ncc(F)cc1F)c1cnc(N2CCC(N3CCCC(COCC(F)(F)F)C3)CC2)s1 (racemic) [Example 59, rac-N-[(3,5-Difluoropyridin-2-yl)methyl]-2-{3-[(2,2,2-trifluoroethoxy)methyl][1,4′-bipiperidin]-1′-yl}-1,3-thiazole-5-carboxamide] |
| 7.13 | O=C(NCc1ncc(F)cc1F)c1cnc(N2CCC(N3CCCC(COCC4(CF)CC4)C3)CC2)s1 (racemic) [Example 60, rac-N-[(3,5-Difluoropyridin-2-yl)methyl]-2-[3-({[1-(fluoromethyl)cyclopropyl]methoxy}methyl)[1,4′-bipiperidin]-1′-yl]-1,3-thiazole-5-carboxamide] |
| 7.06 | O=C(NCc1ncc(F)cc1F)c1cnc(N2CCC(N3CCCC(COCC4(C(F)F)CC4)C3)CC2)s1 (racemic) [Example 61, rac-2-[3-({[1-(Difluoromethyl)cyclopropyl]methoxy}methyl)[1,4′-bipiperidin]-1′-yl]-N-[(3,5-difluoropyridin-2-yl)methyl]-1,3-thiazole-5-carboxamide] |
| 6.89 | O=C(NCc1ncc(F)cc1F)c1cnc(N2CCC(N3CCCC(COCC4(C(F)(F)F)CC4)C3)CC2)s1 (racemic) [Example 62, rac-N-[(3,5-Difluoropyridin-2-yl)methyl]-2-[3-({[1-(trifluoromethyl)cyclopropyl]methoxy}methyl)[1,4′-bipiperidin]-1′-yl]-1,3-thiazole-5-carboxamide] |
| 8.35 | O=C(NCc1ncc(F)cc1F)c1cnc(N2CCC(N3CCCC4(C3)CC4(F)F)CC2)s1 (racemic) [Example 65, rac-2-[4-(1,1-Difluoro-5-azaspiro[2.5]octan-5-yl)piperidin-1-yl]-N-[(3,5-difluoropyridin-2-yl)methyl]-1,3-thiazole-5-carboxamide] |
| 8.66 | O=C(NCc1ncc(F)cc1F)c1cnc(N2CCC(N3CCCC(OCC4CC4)C3)CC2)s1 (racemic) [Example 67, rac-2-[3-(Cyclopropylmethoxy)[1,4′-bipiperidin]-1′-yl]-N-[(3,5-difluoropyridin-2-yl)methyl]-1,3-thiazole-5-carboxamide] |
